Laboratory results: US11111317B2, “Cordyceps militaris medium polysaccharide, method for separating and purifying same, and use thereof” (SOUTH CHINA NORMAL UNIVERSITY, priority 2018, dated 2021)

System: hyperuricemia model mice
Assay: Uric acid lowering ability in hyperuricemia model mice (xanthine + oteracil potassium)
Format: in vivo
Details: positive group 50 mg/kg by gavage, seven days, mouse serum
Method: Sixty male mice are randomly divided into six groups after one week's feeding, with 10 mice in each group, including a blank group, a model group, a high P1 dose group (400 mg/kg), a middle P1 dose group (200 mg/kg), a low P1 dose group (100 mg/kg) and a positive drug (50 mg/kg) control group. Every morning, the model group, the positive control group and the high, middle and low P1 dose groups are administered with 600 mg/kg of xanthine (ig) by gavage+100 mg/kg of oteracil potassium (ip) by intraperitoneal injection, fasting but water available for one hour before the model is made, and the blank group is administered with the same dose of normal saline. In the afternoon, the high, middle and low P1 dose groups are administered with the polysaccharide suspension by gavage; the positive control group is administered with 50 mg/kg of allopurinol suspension by gavage; the model group and the blank group are administered with the same volume of normal saline by gavage for seven consecutive days.
On the seventh day, 1 hour after administration in the afternoon, the mice are weighed and decapitated for blood collection. The blood is centrifuged at 3000 r/min for 10 min after being placed at room temperature for 40 min, and the upper layer of the serum is pipetted. Serum uric acid (UA), serum creatinine (CREA) and serum urea nitrogen (BUN) values are measured by kits to investigate the effects of the polysaccharide P1 on UA, CREA and BUN, as well as renal functions in the hyperuricemia model mice.

Oc1ncnc2[nH]ncc12 [Positive, allopurinol]
BUN (serum urea nitrogen): 6.99 ± 1.10 mmol/L | CREA (serum creatinine): 71.69 ± 8.43 µmol/L | UA (serum uric acid): 108.83 ± 6.53 µmol/L
